≈ marks a conversion by molar mass, not a printed value. Where a SMILES comes first, the peptide text is derived from it. [ ]: non-standard residue; d: D form. Nleu = CC(C)CNCC(=O)O; Nlys = NCCCCNCC(=O)O
Key:
[1] = tested on: PA14 4.18 (pmrB); conditions: CSV; […] MH at pH 8.5
Description: (§1) Antimicrobial activity was assayed for all the peptide–peptoids against P. aeruginosa PAO1, K. pneumoniae NCTC418, E. coli W3110, A. baumannii ATCC 19606, methicillin-resistant S. aureus COL (MRSA), and for selected peptides on P. aeruginosa PA14 and the polymyxin-B-resistant derivatives PA14 4.13, PA14 4.18, PA14 2P4, as well as the clinical isolates ZEM-1A and ZEM9A, K. pneumoniae OXA-48, S. aureus Newman, Enterobacter cloacae, Stenotrophomonas maltophilia, Burkholderia cenocepacia, and Staphylococus epidermidis. To determine the Minimal Inhibitory Concentration (MIC), the Broth Microdilution method was used.[72] A colony of bacteria was picked and grown in LB medium overnight at 37 °C.
(§2) To each well was finally added 4 μL of the diluted bacterial suspension (see above), corresponding to approximately 5 × 10^5 CFU. For each test, two columns of the plate were kept for sterility control (medium only), growth control (medium with bacterial inoculum, no compound). The positive control, Polymyxin B (starting with a concentration of 16 μg/mL) in MH medium with bacterial inocula, was introduced in the two lines of the plate. The plates were incubated at 37 °C for ca. 18 h under static conditions. Next, 15 μL of 3-(4,5-dimethylthiazol-2-yl)-2,5-diphenyltetrazolium bromide (MTT)[73] (1 mg/mL in sterilized MilliQ deionized water) were added to each well, and the plates were incubated for 20–30 min at room temperature. The minimal inhibitory concentration (MIC) was defined as the lowest concentration of the compound that inhibits the visible growth of the tested bacteria (yellow) with the unaided eye.

[2] = tested on: PA14 2P4 (pmrB); conditions: CSV; […] MH at pH 8.5
Description: as §1, §2

[3] = tested on: E. coli W3110; conditions: for MIC E. coli W3110, […] MH at pH 7.4 / MIC E. coli W3110, […] MH at pH 8.5 / MIC E. coli W3110, full MH at pH 7.4 / MIC E. coli W3110, full MH at pH 8.5: CSV; for MIC E. coli W3110 […]: diluted MH ([…] MH, pH 8.5) per Table 1 footnote b, 16–20 h at 37 °C; for MIC E. coli W3110 Full: full MH, pH 7.4, 16–20 h at 37 °C
Description: as §1, §2

[4] = tested on: P. aeruginosa PAO1; conditions: PAO1, 4 h
Description: as §1, §2

[5] = tested on: K. pneumoniae NCTC418; conditions: NCTC418, 4 h
Description: as §1, §2

[6] = tested on: A. baumannii ATCC19606; conditions: for MIC A. baumannii ATCC19606, full MH at pH 7.4 / MIC A. baumannii ATCC19606, full MH at pH 8.5: ATCC19606, 4 h
Description: as §1, §2

[7] = tested on: PA14 4.13 (phoQ); conditions: […] MH at pH 8.5; for MIC P. aeruginosa PA14 4.13, […] MH at pH 8.5: CSV
Description: as §1, §2

[8] = tested on: S. aureus COL (MRSA); conditions: COL
Description: as §1, §2

[9] = tested on: human red blood cells (hRBC); assay: Minimum hemolytic concentration (MHC); format: cell-based
Description: We also measured minimal hemolysis concentrations (MHC) on human red blood cells by serial 2-fold dilution as an indication of toxicity against eukaryotic cells (Table 1).

Row | Compound | MIC P. aeruginosa PA14 4.18, […] MH at pH 8.5 [1] [ug/mL] | MIC P. aeruginosa PA14 2P4, […] MH at pH 8.5 [2] [ug/mL] | MIC E. coli W3110, […] MH at pH 7.4 [3] [ug/mL] | MIC E. coli W3110, […] MH at pH 8.5 [3] [ug/mL] | MIC E. coli W3110, full MH at pH 7.4 [3] [ug/mL] | MIC E. coli W3110, full MH at pH 8.5 [3] [ug/mL] | MIC E. coli W3110 […] [3] [µg/mL] | MIC E. coli W3110 Full [3] [µg/mL] | MIC P. aeruginosa PAO1, full MH at pH 7.4 [4] [ug/mL] | MIC P. aeruginosa PAO1, full MH at pH 8.5 [4] [ug/mL] | MIC K. pneumoniae NCTC418, full MH at pH 7.4 [5] [ug/mL] | MIC K. pneumoniae NCTC418, full MH at pH 8.5 [5] [ug/mL] | MIC A. baumannii ATCC19606, full MH at pH 7.4 [6] [ug/mL] | MIC A. baumannii ATCC19606, full MH at pH 8.5 [6] [ug/mL] | MIC P. aeruginosa PA14 4.13, […] MH at pH 8.5 [7] [ug/mL] | MIC S. aureus COL (MRSA), full MH at pH 7.4 ([8]; 4 h, pH 7.4) [ug/mL] | MIC S. aureus COL (MRSA), full MH at pH 8.5 ([8]; 4 h, pH 8.5) [ug/mL] | Hemolysis [9] | MHC [9] [µg/mL] | further results
1 | CC(C)C[C@H](NC(=O)[C@H](CC(C)C)NC(=O)[C@H](CC(C)C)NC(=O)CN(CCCCN)C(=O)[C@H](CC(C)C)NC(=O)[C@H](CC(C)C)NC(=O)CN(CCCCN)C(=O)[C@H](CC(C)C)NC(=O)[C@H](CC(C)C)NC(=O)CN(CCCCN)C(=O)CNCCCCN)C(N)=O [EB7, kkLLkLLkLLL] (H-[Nlys][Nlys]LL[Nlys]LL[Nlys]LLL-NH2) | 8 | 16 | 4 | 1 | 16 | 4 | 4 (≈ 3.03 µM) | 16 (≈ 12.1 µM) | 32 | 8 | >32 | 4 | >32 | 4 | 4 | >32 | 6 | none of them showed any measurable hemolysis | >2000 | MIC A. baumannii ATCC19606 Full ([6]; ATCC19606, pH 7.4): >32 µg/mL; MIC S. aureus COL (MRSA) Full MH 8.5 ([8]; 4 h, pH 8.5): 4 to 8 µg/mL; MIC S. aureus COL (MRSA) Full ([8]; pH 7.4): >32 µg/mL
2 | CC(C)CN(CC(N)=O)C(=O)CN(CC(C)C)C(=O)CN(CC(C)C)C(=O)[C@H](CCCCN)NC(=O)CN(CC(C)C)C(=O)CN(CC(C)C)C(=O)[C@H](CCCCN)NC(=O)CN(CC(C)C)C(=O)CN(CC(C)C)C(=O)[C@H](CCCCN)NC(=O)[C@@H](N)CCCCN [EB8, KKllKllKlll] (H-KK[Nleu][Nleu]K[Nleu][Nleu]K[Nleu][Nleu][Nleu]-NH2) | 32 | 32 | 8 | 3 | >32 | 8 | 8 (≈ 6.05 µM) | >32 | >32 | 16 | >32 | 16 | >32 | 16 | 24 | >32 | 16 | none of them showed any measurable hemolysis | >2000 | MIC E. coli W3110 […] 8.5 ([3]; Table S2, […] MH, pH 8.5): 2 to 4 µg/mL; MIC P. aeruginosa PA14 4.13 ([7]; Table S3): 16 to 32 µg/mL
